Results from patent US20240180887A1, “USE OF PPAR(gamma) AGONISTS OR MPC INHIBITORS FOR TREATING PRIMARY, INNATE DISEASES OF THE CARDIAC MUSCLE (CARDIOMYOPATHIES)” (PREVENTAGE THERAPEUTICS GMBH, priority 2021, published 2024).
“Also recorded” adds a separate entry of the source.

Tests used:
[1] = tested on: αMHC^719/+ HCM mouse model; assay: Preclinical αMHC^719/+ HCM mouse model, overall summary of results; type: in vivo; details: oral administration in the αMHC^719/+ HCM mouse model
Description: The examinations were carried out on an established HCM mouse model, in which an arginine-to-tryptophan mutation at position 719 of the heavy chain of the cardiac mouse alpha-myosin gene was effected by homologous recombination (referred to as αMHC^719/+)^38. Such genetically modified mice increasingly develop the typical pathognomonic disease characteristics of hypertrophic cardiomyopathy such as myocardial hypertrophy and fibrosis with increasing age. The phenotype of this genetically generated HCM mouse model thus simulates the phenotype of HCM patients affected^36,37,38. The manifestation of the disease can be accelerated by subcutaneous administration of the calcineurin inhibitor cyclosporin A (CsA)^9.
Between their 6th and 12th postnatal week, all mice were injected subcutaneously with cyclosporin A (CsA) to accelerate hypertrophic remodeling in the myocardium in the HCM mouse model^9. Half of the mice were treated with the PPARγ agonists rosiglitazone and pioglitazone from the group of thiazolidinediones between their 6th and 12th postnatal week. In their 12th postnatal week, they were subjected to in vivo transthoracic echocardiography. The animals were then euthanized for ex vivo examination (organ removal, histopathology, and determination of radical oxygen species, of mRNA and protein expression in the tissue) (see FIG. 10).D

[2] = tested on: radical oxygen species (ROS); assay: Radical oxygen species (ROS) in left ventricular myocardium by electron paramagnetic resonance spectroscopy; type: in vivo, mouse; details: αMHC^719/+ mice treated with pioglitazone vs untreated HCM mice, 6 weeks, p=0.053
Text: Reduction of oxidative stress: The treatment with PPARγ agonists leads to reduced expression of hypoxia-inducible factor 1-alpha, a major transcription factor in the redox signaling pathway. As a result, less radical oxygen species are produced in the left ventricular myocardium, thereby reducing cellular oxidative stress. A protective effect on the pathological remodeling of the cardiac muscle was observed.
Electron paramagnetic resonance (EPR) was applied as described in order to calculate the production of radical oxygen species (ROS) in the left ventricular myocardium^46-48. […] The analysis of ROS generation was carried out at 37° C. for 10 minutes with 20 scans in an Escan EPR spectrometer under temperature control (Noxygen) and the following parameters: microwave power 23.89 mW; center field 3459-3466 G; steep width 10 G, frequency 9.7690 GHz and modulation amplitude 2.93 G. ROS generation was calculated by means of linear regression and normalized to the cellular protein content.

cardiac myosin = assay: Mant-ATP assay of left ventricular cardiac myosins (DRX vs SRX state); type: in vivo, mouse; details: αMHC^719/+ mice treated with pioglitazone vs untreated αMHC^719/+ mice
Text: FIG. 5 Examination of the percentages of left ventricular cardiac myosins in the DRX (disordered relaxation) compared to the SRX (super-relaxed) state using a fluorescent ATP analog. […] The treatment of the HCM mouse model with pioglitazone thus also has a positive effect on the functional properties of the left ventricular heart muscle tissue. The results of this Mant-ATP assay indicate that it was possible to prevent the changes in the biophysical properties of the myosins, which are described as being the cause of hypertrophic cardiomyopathy, in the mice treated with pioglitazone.
Cardiac myosin ATPase activity was measured by Mant-ATP assay, which examines cardiomyocyte contractility and relaxation indirectly by measuring the activity of cardiac myosin ATPase. For this purpose, the Mant-ATP assay (Roche) was applied in the left ventricular myocardium of the different mouse groups, which was shock-frosted in liquid nitrogen and stored in frozen state at −80° C. Mant-ATP is a fluorescent, […] ATP that binds the head of the cardiac myosin. The assay measures the release of Mant-ATP after addition of ATP^44,45.

[3] = tested on: Acta1, Col1a1, Col1a2, Cyba, Gdf15, Hif1a, Icam1, IL33, Mmp2, Nfkb1, Nox4, Nppa, Postn, Tgfb1, Tgfb2, Tgfb3; assay: mRNA expression of pro-hypertrophic, pro-fibrotic and pro-inflammatory genes in left ventricular myocardium (RNA sequencing); type: in vivo, mouse; details: αMHC^719/+ mice treated with pioglitazone vs untreated, p<0.001
Description: FIG. 8 The mRNA expression of pro-hypertrophic, pro-fibrotic, and pro-inflammatory genes such as Acta1, Col1a1, Col1a2, Cyba, Gdf15, Hif1a, Icam1, IL33, Mmp2, Nfkb1, Nox4, Nppa, Postn, Tgfb1, Tgfb2, and Tgfb3 is increased in the left ventricular myocardium of αMHC^719/+ HCM mice (HET) compared to wild-type mice (WT) (HET/WT). […] Strand-specific, polyA-enriched RNA sequencing was carried out as described above^51. The RNA was isolated using the AllPrep RNA Kit (Qiagen). The RNA integrity number (RIN) was determined using the Agilent 2100 BioAnalyzer (RNA 6000 Nano Kit, Agilent). In order to prepare the library, 1 μg RNA was poly(A)-selected, fragmented, and reverse-transcribed with the Elute, Prime, Fragment Mix (Illumina). […] RNA libraries were tested for quality and quantity using the Agilent 2100 BioAnalyzer and the Quant-iT PicoGreen dsDNA Assay Kit (Life Technologies). […] The STAR Aligner (version 2.4.2a)^52 with modified parameter settings (--twopassMode=Basic) was used for the split-read alignment against the […] genome assembly hg19 (GRCh37) and the UCSC knownGene annotation. HTseq-count (version 0.6.0)^53 was used to quantify the number of reads mapped to annotated genes. FPKM values (fragments per kilobase of transcript per million fragments mapped) were calculated using custom scripts. […]

HCM mice (αMHC^719/+) [4] = assay: Heart-to-body weight ratio ex vivo after organ removal; type: in vivo, mouse; details: αMHC^719/+ mice, pioglitazone 10 mg/kg of body weight/day orally, 6 weeks, vs untreated αMHC^719/+ mice, p=0.008
Description: The mice were weighed and euthanized to calculate the heart-to-body weight ratio. The thorax was opened quickly, and the heart was removed and washed twice in cold PBS solution. The large vessels and connective tissue were removed, the heart was swapped dry and weighed, and the heart and body weight of the mouse were determined.

HCM mice (αMHC^719/+) [5] = assay: Histopathology of left ventricular myocardium, Masson's trichrome (myocardial fibrosis), experimental setup A; type: in vivo, mouse
Text: FIG. 6 Histopathology of the left ventricular myocardium of wild-type (WT) and HCM mice (αMHC^719/+) with and without treatment with pioglitazone (PIO) after 6 weeks; myocardial fibrosis appears in medium gray in the Masson's trichrome-stained histological sections. […] HCM mice show massive myocardial fibrosis (white arrows in (C)).
In order to quantify myocardial fibrosis, the removed hearts were fixed in 4% paraformaldehyde, dehydrated, and placed in paraffin, as described above^37,42,43. 5-μm sections were stained with Masson's trichrome and hematoxylin-eosin. The extent of myocardial fibrosis was quantified by a digitized method by calculating the percentage of cardiac muscle portions stained blue with Masson's trichrome in relation to the overall stained cardiac muscle. Perivascular and intramurine structures, the endocardium, or trabeculas were excluded in the calculation of the percentage of fibrosis.

CCc1ccc(CCOc2ccc(CC3SC(=O)NC3=O)cc2)nc1 (racemic) [pioglitazone, (RS)-5-{p-[2-(5-ethyl-2-pyridyl)ethoxy]benzyl}-2,4-thiazolidinedione]
changes in biophysical properties in the heart muscle cell and onset of myocardial hypertrophy and fibrosis [1]: largely prevents
production of radical oxygen species in the left ventricular myocardium [2]: significantly decreased
production of radical oxygen species in the left ventricular myocardium ([2]; listed as poglitazone): significantly reduced
percentages of left ventricular cardiac myosins in the DRX compared to the SRX state (cardiac myosin): significant shift towards the SRX state; also recorded: prevents the functional biophysical changes
overexpression of pro-hypertrophic, pro-fibrotic and pro-inflammatory genes (HET+PIO/HET) [3]: significantly reduced or completely prevented; also recorded: prevents
development of myocardial hypertrophy (heart-to-body weight ratio ex vivo) (HCM mice (αMHC^719/+) [4]): completely inhibited
myocardial fibrosis in wild-type mice (HCM mice (αMHC^719/+) [5]; wild-type mice with treatment with pioglitazone, 6 weeks): hardly any fibrosis
formation of myocardial fibrosis (histological sections) (HCM mice (αMHC^719/+) [5]; αMHC^719/+ mice, pioglitazone 10 mg/kg of body weight/day orally, 6 weeks): almost completely prevents the formation of myocardial fibrosis
fibrosis after semi-automated threshold detection of collagen (ImageJ) (HCM mice (αMHC^719/+) [5]; αMHC^719/+ mice, pioglitazone 10 mg/kg/day orally vs untreated HCM mice, p=0.017): significantly less fibrosis
